Assay results published in publication PMC12787000 (Molecules, 2025).

Assays:
518A2 cells = experiment: MTT cell viability assay, 518A2; format: cell-based; settings: Homo sapiens; 518A2, MTT, 72 h
Method: (§1) A375, MRC-5, and HaCaT cell lines were obtained from the American Type Culture Collection (ATCC). 518A2 cell line was kindly provided by Dr. […]ć. All cell lines were cultured in RPMI 1640 medium supplemented with 2 g/L glucose, 10% fetal bovine serum (FBS), and antibiotics. […] Cell viability was assessed using the MTT assay (Sigma Aldrich, #M5655). […] After 72 h of incubation, absorbance was measured at 570 nm using a Multiskan SkyHigh microplate reader (Thermo Fisher Scientific, Helsinki, Finland). Values were corrected by subtracting the absorbance measured in wells containing cell-free medium with tested compounds.

[1] = system: HaCaT (human keratinocytes); experiment: MTT cell viability assay, HaCaT; format: cell-based; settings: 72 h
Method: as §1

A375 cells [2] = experiment: Cellular uptake and subcellular distribution by LC-MS/MS; format: cell-based; settings: A375, 25 μM, 24 h; for Compound accumulation normalized to telmisartan, Chromatin Bound: chromatin-bound nuclear fraction; for Compound accumulation normalized to telmisartan, Cytoplasm: cytoplasmic fraction; for Compound accumulation normalized to telmisartan, Cytoskeleton: cytoskeletal fraction; for Compound cell accumulation normalized to telmisartan, Whole Lysate: μmol compound per μg cell protein normalized to telmisartan
Method: Cells were then trypsinized, washed with PBS and pelleted. For whole cell lysates, cell pellet was dissolved in RIPA buffer on ice. Fractions and whole cell lysates were stored at -80 °C until use. Protein concentration of lysates was determined with Pierce BCA Protein assay kit (Thermo Fisher #23225), and cell accumulation was calculated as μmol of compound per μg of cell protein and normalized to telmisartan. Concentrations of telmisartan and its derivatives were determined using liquid chromatography-tandem mass spectrometry (LC-MS/MS) method in positive HESI mode. The analysis was performed on UHPLC chromatograph […] (Thermo Fisher Scientific Inc., Madison, WI, USA), coupled to a triple quadrupole mass spectrometer TSQ Quantum Access MAX (Thermo Fisher Scientific Inc., Madison, WI, USA) with heated electrospray ionization (HESI) interface. The column was Zorbax Extend C18 (150 mm × 4.6 mm, 5 μm particle size). […] Experiment was repeated twice.

A375 cells [3] = experiment: Cell cycle distribution (PI, flow cytometry), A375; format: cell-based; settings: A375, 25 µM, 72 h
Method: (§2) A375 and A375R cells were seeded in 6-well plates at a density of 150,000 cells per well. On the following day, the cells were treated with 25 µM concentrations of compounds 1, 3, and 8, as well as telmisartan. After 72 h of incubation, the cells were harvested using trypsin, washed with phosphate-buffered saline (PBS), fixed in ethanol, and stored at −20 °C until analysis. Ethanol-fixed cells were treated with RNase A (1 mg/mL) and stained with propidium iodide (PI; 400 µg/mL). A total of 20,000 events were recorded per sample. Quantitative analysis of the cell cycle phase distribution was performed by flow cytometry using a FACSCalibur flow cytometer (Becton Dickinson, San Jose, CA, USA) and BD CellQuest Pro Version 5.2.1 software. Experiment was performed three times. Cells under treatment were compared to controls for each cell phase separately with one-way ANOVA and Dunnett’s multiple comparison tests. p < 0.05 was considered statistically significant.

A375R cells = experiment: Cell cycle distribution (PI, flow cytometry), A375R; format: cell-based; settings: 25 µM, 72 h
Method: as §2

A375 cells [4] = experiment: Mitochondrial morphology staining (MitoTracker Green FM); format: cell-based; settings: A375, 25 μM, 24 h
Method: For imaging of the mitochondrial morphology in live cells, A375 cells seeded in 96-well optical bottom plates, as above, were treated for 24 h with 25 μM telmisartan, compound 1, 3, or 8. Treatment was washed away, and cells were stained with 500 nM MitoTracker Green FM (#9074, Cell signaling Technology, Danvers, MA, USA) in RPMI without serum for 30 min at 37 °C. Cells were imaged on Zeiss PALM MicroBeam Axio Observer Z1 microscope (Carl Zeiss MicroImaging GmbH, Oberkochen, Germany) with Zeiss LD Plan-Neofluar 20×/0.4 Korr, ∞/0–1.5 mm lens and AxioVision software. Mitochondrial shape was quantified in images from two biological experimental repeats, in three random fields for each condition, using Image J Analyze Particles function. Images were first processed to 8-bit binary, and circularity and aspect ratio (major axis/minor axis) were calculated and plotted with Prism 9 (GraphPad Software, LLC, Boston, MA, USA). Treatments were compared with untreated control using one-way ANOVA and Dunnett’s multiple comparisons test. p < 0.05 was considered statistically significant.

[5] = Stability in biological media (HPLC); format: physicochemical; settings: room temperature
Method: To test stability in biological media, three best drug candidates (compounds 1, 3, and 8) were dissolved in 0.05 M hydrochloric acid, pH 2.0, and phosphate buffer, pH 5.5 (prepared by dissolving sodium dihydrogen phosphate dihydrate and disodium hydrogen phosphate in distilled water, followed by the adjustment of pH by ortho-phosphoric acid) and RPMI 1640 medium. Stock solutions in DMSO (2 mg/mL) were diluted by corresponding medium to obtain working solutions (0.02 mg/mL) and incubated at room temperature in 0.05 M hydrochloric acid (2 h), phosphate buffer pH 5.5 (5 h), and RPMI 1640 medium (72 h). Compounds were injected freshly prepared, and after incubation time, the differences in concentrations was expressed as percentages. Quantification was performed on Dionex Ultimate 3000 HPLC system (Thermo Fisher Scientific, Dreieich, Germany), consisting of Dionex Ultimate 3000 quaternary pump, autosampler, and DAD detector. The column was Zorbax Extend C18 (150 mm × 4.6 mm, 5 µm particle size). The mobile phase was 0.1% formic acid/acetonitrile = 50/50 (compound 1) and 60/40 (compounds 3 and 8). The column temperature was adjusted to 25 °C, and the flow rate was 0.5 mL/min. The detection was performed at 300 nm.

| Compound accumulation normalized to telmisartan, Chromatin Bound (A375 cells [2]) | Compound accumulation normalized to telmisartan, Cytoplasm (A375 cells [2]) | Compound accumulation normalized to telmisartan, Cytoskeleton (A375 cells [2]) | Accumulation in the membrane fraction (A375 cells [2]; membrane fraction) | Compound cell accumulation normalized to telmisartan, Whole Lysate (A375 cells [2]) | Change in concentration after incubation in 0.05 M hydrochloric acid ([5]; 0.05 M HCl, pH 2.0, 2 h) | Change in concentration after incubation in RPMI 1640 medium ([5]; RPMI 1640 medium, 72 h) | Compound accumulation normalized to telmisartan, Membrane (A375 cells [2]; membrane fraction) | Change in concentration after incubation in phosphate buffer pH 5.5 ([5]; phosphate buffer pH 5.5, 5 h) | SMILES | IC50 (518A2 cells) | IC50 [1] | Cell cycle distribution (A375 cells [3]) | Cell cycle distribution (A375R cells) | Mitochondrial network morphology (A375 cells [4]) |
| --- | --- | --- | --- | --- | --- | --- | --- | --- | --- | --- | --- | --- | --- | --- |
| 11.90 | 11.17 | 7.44 | 26.814 µmol/L | 4.41 | 3.04% | 2.00% | – | – | CCCc1nc2c(C)cc(-c3nc4ccccc4n3C)cc2n1Cc1ccc(-c2ccccc2C(=O)NC(Cc2ccccc2)C(=O)O)cc1 (centres unmarked) [compound 8, 2-{[4′-(1,7′-dimethyl-2′-propyl-1H-[2,5′]bibenzoimidazolyl-3′-ylmethyl)-biphenyl-2-carbonyl]-amino}-3-phenyl-propionic acid] | 28.4 ± 2.66 µM | 70.8 ± 6.99 µM | increased accumulation of cells in the subG1 phase, albeit not statistically significant | cell accumulation in the G0/G1 phase | dramatic fission and clumping of mitochondria |
| 0.52 | 3.64 | 0.69 | – | 4.57 | – | – | 4.62 | 3.49% | CCCc1nc2c(C)cc(-c3nc4ccccc4n3C)cc2n1Cc1ccc(-c2ccccc2C(=O)NC(Cc2ccc(O)cc2)C(=O)O)cc1 (centres unmarked) [compound 3, 2-{[4′-(1,7′-dimethyl-2′-propyl-1H-[2,5′]bibenzoimidazolyl-3′-ylmethyl)-biphenyl-2-carbonyl]-amino}-3-(4-hydroxy-phenyl)-propionic acid] | 31 ± 2.38 µM | 63.46 ± 0.23 µM | increased accumulation of cells in the subG1 phase, albeit not statistically significant | cell cycle profile comparable to that of the untreated control cells | disrupted the mitochondrial network to a greater extent than telmisartan |
